Source: patent US20070099869A1, “Association product of α-glycosyl α,α-trehalose with ionic metal compound” (KABUSHIKI KAISHA HAYASHIBARA SEIBUTSU KAGAKU KENKYUJO, priority 2003, published 2007)
Each block holds one compound with its values, some of them ahead of it.

Columns and labels:
[1] = Inhibition of deterioration (browning) of L-ascorbic acid in the presence of metal ion; type: physicochemical; conditions: 50° C., sealed vial
Method: L-Ascorbic acid deteriorates rapidly by the oxidative degradation in the presence of iron and copper ions and causes browning. The effects of α-maltosyl α,α-trehalose on the phenomenon were investigated as follows. Five kinds of aqueous solutions, having respective compositions described in Table 8, were prepared. Aqueous solutions of L-ascorbic acid alone or L-ascorbic acid and metal ion compounds were used as controls. The test solutions were prepared by adding α-maltosyl α,α-trehalose to the control solutions. Ten milliliters of each of these test and control solutions were placed in different 20 ml-vials and sealed. The vials were preserved at 50° C. […] After the preservation, the degree of coloring of each solution was measured. In the case of the control solutions containing L-ascorbic acid alone, the degrees of coloring were measured at the preservation periods of 40 hours and 96 hours. The absorbance at 420 nm (within the visible light range) of each sample was measured for the degree of coloring.

[2] = Hygroscopicity (deliquescence) test at relative humidity 52.8%; type: physicochemical
Method: In order to compare the hygroscopicity (deliquescent property) of an associated complex of α-maltosyl α,α-trehalose and calcium chloride with that of a control, calcium chloride which is known to have a high deliquescent property, the following hygroscopicity test was carried out. The crystalline associated complexes of α-maltosyl α,α-trehalose and calcium chloride, prepared according to the method in Experiment 2-1 and calcium chloride dehydrate, were used as test samples. The moisture content (weight of moisture per one gram of the sample) of each sample was measured by conventional drying loss method. […] The amount of moisture per one gram of each sample after 1 to 7 days preservation was calculated based on the assumption that the increased amount measured to that of 0 day preservation was the amount of moisture absorbed by each sample.

[3] = Inhibition of formation of calcium phosphate precipitate (solubilized calcium); type: physicochemical; conditions: calcium chloride solution with saccharide mixed with phosphate solution pH 6.8, 37° C., three hours, supernatant, n=3
Method: When phosphate ion is added to a calcium chloride aqueous solution, calcium phosphate, an insoluble salt, is formed from calcium ion and phosphate ion and then precipitated. Effects of α-maltosyl α,α-trehalose and other saccharides on the phenomenon were investigated as follows. A calcium chloride aqueous solution was prepared by the steps of adding 3.68 grams of calcium chloride dihydrate to deionized water to dissolve therein and adding deionized water to the solution to give a total volume of 200 ml. α-Maltosyl α,α-trehalose, prepared by the method in Experiment 1, maltotetraose, and anhydrous crystalline sucrose were used as saccharides for the test. […]
Twenty-six grams, d.s.b., of either of the saccharides for the test were added to five milliliters of the above calcium chloride solution and dissolved by adding additional deionized water. […] The calcium concentration (the solubilized calcium concentration) of each supernatant was measured using “ZEEMAN 5100”, an atomic adsorption-photometer commercialized by Perkin-Elmar Japan Co. Ltd., Kanagawa, Japan. […]
The above procedure was carried out for individual each sample (three kinds of saccharides and control) for three times and the average value of the solubilized calcium concentration was calculated.

[4] = Method: The changes of solubility in water of metal ion compounds were examined under coexistence of α-maltosyl α,α-trehalose and metal ion compounds. α-Maltosyl α,α-trehalose prepared by the method in Experiment 1 was used for the tests. […] Solutions prepared by dissolving the same amount of metal ion compounds only were prepared as controls. After dissolving the contents completely, all the beakers were allowed to stand at room temperature (25° C.) for 24 hours. Successively, precipitation of crystals was judged by macroscopic observation. In the case of precipitating crystals, the formed crystals were collected and analyzed for components by the conventional method.

Degree of coloring (Abs. at 420 nm), preserved for 40 hrs ([1]; 40 hrs): 0.012 | Degree of coloring (Abs. at 420 nm), preserved for 96 hrs ([1]; 96 hrs): 0.166
SMILES: O=C1O[C@H]([C@@H](O)CO)C(O)=C1O [14.8 mM AsA, L-ascorbic acid]

SMILES: O.O.[Ca+2].[Cl-].[Cl-] [CaCl2•2H2O, calcium chloride dihydrate]
Moisture content/g-sample, 1 day ([2]; 25° C., relative humidity 52.8%, 1 day): 0.319 g | Moisture content/g-sample, 2 days ([2]; 25° C., relative humidity 52.8%, 2 days): 0.359 g | Moisture content/g-sample, 3 days ([2]; 25° C., relative humidity 52.8%, 3 days): 0.405 g | Moisture content/g-sample, 7 days ([2]; 25° C., relative humidity 52.8%, 7 days): 0.430 g | Moisture content/g-sample, 0 day ([2]; before preservation, drying loss method): 0.245 g

Concentration of solubilized calcium (average ± standard deviation) [3]: 6910 ± 830 ng/mL
SMILES: OC[C@H]1O[C@H](O[C@H]2[C@H](O)[C@@H](O)[C@@H](O[C@H]3[C@H](O)[C@@H](O)[C@@H](O[C@H]4[C@H](O)[C@@H](O)C(O)O[C@@H]4CO)O[C@@H]3CO)O[C@@H]2CO)[C@H](O)[C@@H](O)[C@@H]1O (stereo partly shown) [Maltotetraose, maltotetraose]

SMILES: O.O.O.O.[Cl][Mn][Cl] [Manganese chloride, manganese chloride tetrahydrate]
Solubility in water in the presence of α-maltosyl α,α-trehalose [4]: remarkably improved

Precipitation of crystal, in the absence of α-maltosyl α,α-trehalose ([4]; 0.1 mole metal ion compound only in 30 g water, dissolved by heating, 25° C. for 24 hours, macroscopic observation): Precipitated
SMILES: O.O.O.O.O.O.[Cl-].[Cl-].[Sr+2] [Strontium chloride, Strontium chloride hexahydrate]
